The text below walks through data of patent publication US9439986B2, “Tricarbonyl technetium-99m, rhenium-185/187, or rhenium-188 labeled cyclic RGD derivatives and uses thereof” (BIO IMAGING KOREA CO., LTD., priority 2010, dated 2016).

Data set [1] relates to subcutaneous tumor. The data set is described as follows: Tumor growth suppression and treatment performance of rhenium-188 labeled derivative in tumor model mice (I). In kind it is in vivo. Here is the method:
Treatment effect experiment was conducted to investigate the ability of tricarbonyl rhenium-188 labeled cyclic RGD derivative to suppress tumor growth.
The rhenium-188 labeled cyclic RGD derivative of Example 5 was injected once in a week, for four weeks. The models to determine treatment effect were divided into small radioactive injection group (300 μCi) and large radioactive injection group (600 μCi), and at the same time, a control group injected with sterilized saline and a comparative group injected with 100 μg of cyclic RGD (cRGDyV) intraperitoneally everyday, were also set. The compound of Example 11 and the sterilized saline were administered through tail veins. The CT images was taken once a week, to visually measure the growth and size of the subcutaneous tumor. The tumor was actually measured three times a week using Vernier Calipers, and the weights of the animal models were also consistently measured three times a week for total 4 weeks.

Data set [2] deals with tumor. Here is the method:
The small-animal SPECT/CT was used to acquire static imaging of the mice for 60 minutes after the injection. The imaging protocol consisted of repetition of emission and transmission as follows: [10 min emission+transmission]×6 times

Data set [3] relates to integrin αvβ3. The following applies: cRGDyV 18 mg/Kg tail vein 10 minutes before; at 25 minutes post-injection; compared to images of FIG. 6. On the procedure: Upon injection, SPECT/CT images were acquired under following conditions:
The animal models were anesthetized with 2% isofluorane gas for the duration of image acquisition time, and the tumor size of the animal models was 0.4 cc. CT images were taken under condition of 45 v, 178 μA for 4 min and 30 sec., and acquired at 10 minute intervals for total 9 times (i.e., for 90 minutes after the injection).

Where [4] appears, read: 600 μCi once a week for four weeks.
Setting [5] is: 600 μCi once a week, 0.3 cc at initial measurement.
Setting [6] is: 100 μg cyclic RGD (cRGDyV) intraperitoneally everyday, initial tumor size 0.7 cc.

Consider “cyclic{(tricarbonyl-[^188Re]rhenium-N-α-bis-hydroxycarbonyl methyl-glycine-CONH(CH2CH2O)4CH2CH2CONH-lysine)-alginine-glycine-aspartic acid-D-phenylalanine} [Example 11]”, for which the “tumor growth suppression ability compared to sterilized saline or cyclic RGD groups” value in data set [1] (300 μCi once a week for four weeks) is “approximately 50%”. For the same substance, the “tumor size when the treatment for four weeks was ended” value in data set [1] (300 μCi tail vein once a week for four weeks, initial tumor size 0.23 cc) is 0.66 cc. In addition, in data set [1] (setting [4]), the “tumor growth suppression ability compared to low radiation energy treatment group (300 μCi)” value is “approximately 79%”; the “tumor growth suppression ability compared to sterilized saline and cyclic RGD groups” value was “approximately 90%”. For the same substance, the “tumor size at the end of the treatment” value in data set [1] (600 μCi once a week for four weeks, 0.3 cc at initial measurement) was 1.4 cc. In data set [1] (setting [5]), the “tumor size at 3 week” value was 0.7 cc and the “tumor size at week 2” value was 0.3 cc.

With “(tricarbonyl [^188Re]rhenium-N-α-bis-hydroxycarbonyl methyl-aspartic acid)-[cyclic(lysine-alginine-glycine-aspartic acid-D-phenylalanine)]2 [Example 12]”, in data set [2] (600 μCi/200 μL), the “CD31 blood vessel staining of tumor tissue slice” value was “no clear vessels were observed” and the “integrin αvβ3 distribution in tumor tissue slice using Q-dot RGD derivatives” value was “most integrin was damaged”. In addition, in data set [2] (600 μCi/200 μL, SPECT after three days), the “reduction of uptake rate in tumor (SPECT with the compound of Example 15) versus non-administered model” value worked out at 59%. For the same substance, in data set [2] (600 μCi/200 μL, versus non-administered model), the “distribution of blood vessels around the tumor (photographs of removed tumors)” value is given as “noticeably less distribution of ambient blood vessels”.

For the substance “cyclic{(tricarbonyl-[^185/187Re]rhenium-N-α-bis-hydroxycarbonyl methyl-alginine-glycine-aspartic acid-D-phenylalanine} [Example 6]”, the “tumor size after three days” value in data set [2] (600 μCi/200 μL single injection, initial size 0.3 cc, non-administered model 0.65 cc) is recorded as 0.35 cc.

As for cRGDyV [cyclic RGD], in data set [1] (100 μg cyclic RGD (cRGDyV) intraperitoneally everyday), the “rate of tumor growth compared with sterilized saline group” value is “no meaningful difference”. For the same substance, the “weight of animals after treatment” value in data set [1] (100 μg cyclic RGD (cRGDyV) intraperitoneally everyday, initial measurement 23 g) is 30 g. In data set [1] (setting [6]), the “tumor size at 2 week” value turned out to be 3.9 cc, the “tumor size at 3 week” value is 8.0 cc and the “tumor size at last week of treatment” value is given as 12.9 cc.

As to “(tricarbonyl-[^99mTc]technetium-N-α-bis-hydroxycarbonyl methyl-aspartic acid)-[cyclic (lysine-alginine-glycine-aspartic acid-D-phenylalanine)]2 [Example 15]”, in data set [3], the “reduction of absorption in tumor after administration of cyclic RGD (cRGDyV)” value is reported as at least 94%.
